The test system of the assay is Severe acute respiratory syndrome coronavirus 2. Briefly: Covalent binding affinity to SARS-CoV-2 mutant PLpro Cys111S at 10 uM incubated for 2 hrs by SDS gel analysis.

The structures appear in SMILES notation. Activity calls are given as the source filed them. The rule behind the calls is not given here. *1 amine or outer side, *2 acyl side, *3 side chain or, on linkers, in order; H or OH if unused. Where a SMILES comes first, the peptide text is derived from it. Bridges are numbered along the chain shown (N, C = ends). [ ]: non-standard residue; d: D form. The star is where a group is joined. Met(S-mXyl) = C[S+](CC[C@H](N[*:1])C(=O)[*:2])Cc1cccc(C[*:3])c1; X1 = Cc1ccc(N*)cc1C(=O)NC(C)c1cccc2ccccc12

Turning to `Cc1ccc(NC(=O)CC[C@H](N)C(=O)N[C@H]2CC[S+](C)Cc3cccc(c3)CSC[C@@H](C(=O)O)NC(=O)CNC(=O)[C@H](CCCNC(=N)N)NC(=O)[C@H](CC(C)C)NC2=O)cc1C(=O)NC(C)c1cccc2ccccc12` (stereo partly specified) (H-E(X1)[Met(S-mXyl)]LRGC-OH; thioether 2-6), the outcome was inactive.

The record behind these values is ChEMBL document CHEMBL5042515, “Design and Evaluation of a Novel Peptide-Drug Conjugate Covalently Targeting SARS-CoV-2 Papain-like Protease” (J Med Chem, 2022).
